The ΔTm is the change in melting temperature against a reference sample. For orientation: Ki means the equilibrium dissociation constant of an inhibitor or competing ligand from its target. A high value points to weaker binding. A word on the IC50: it is the concentration at which inhibition is half-maximal. The term EC50 denotes the concentration at which the effect is half-maximal. A word on the Km: it is the substrate concentration at which the rate is half of its maximum.

Values after ≈ are worked out from the molar mass of the structure shown.

Series [1] addresses T1, glycosomal T. b. rhodesiense glyceraldehyde-3-phosphate dehydrogenase (TbrGAPDH) (Trypanosoma brucei brucei, UniProt P22512).
T1 construct: made in house; host or cells: E. coli BL21(DE3), pET28a
Kind of series: Thermal stability assay (CD spectroscopy) regarding TbrGAPDH. The series is classed as binding. Particulars: for ∆Tm of TbrGAPDH: vs TbrGAPDH alone. The procedure:
Thermal unfolding of TbrGAPDH and TbrAK was studied by circular dichroism (CD) spectroscopy at 220 nm within the temperature range of 20–90°C using a heating rate of 40°C/h. […]
All measurements were done in a 0.5 mm cell and contained 0.1 %
(§1) DMSO and 2.5 mM EDTA to prevent enzyme activity. Thermal stability was analyzed in presence of 500 µM substrate to record the maximum stability limit, whereas compounds 1 to 5 were used at a concentration of 50 µM, being the highest concentration achievable for compound 2, to allow comparison of all compounds at the same concentration. For evaluation of the CD spectra, the buffer spectrum was subtracted from the protein CD spectrum. All thermal unfolding curves were fitted to a two-state model that had been published recently. The mean of three independent experiments are reported. […]

Series [2] addresses T2, adenosine kinase of T. b. rhodesiense (TbrAK) (Trypanosoma brucei rhodesiense, UniProt Q584S0).
T2 sequence (Q584S0 1-345): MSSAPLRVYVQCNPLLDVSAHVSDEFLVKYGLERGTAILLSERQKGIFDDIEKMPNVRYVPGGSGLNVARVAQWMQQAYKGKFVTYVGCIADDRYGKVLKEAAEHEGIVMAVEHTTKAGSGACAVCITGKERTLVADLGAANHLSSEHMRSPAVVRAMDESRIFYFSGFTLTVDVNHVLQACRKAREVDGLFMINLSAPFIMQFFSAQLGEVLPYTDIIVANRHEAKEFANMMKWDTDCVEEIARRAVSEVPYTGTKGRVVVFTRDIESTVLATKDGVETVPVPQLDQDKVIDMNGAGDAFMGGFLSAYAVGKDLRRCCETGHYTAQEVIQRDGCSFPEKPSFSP
Briefly: Thermal stability assay (CD spectroscopy) regarding TbrAK. Particulars: for Tm of TbrAK: 13 µM TbrAK. The class given is binding. The procedure:
Thermal unfolding of TbrGAPDH and TbrAK was studied by circular dichroism (CD) spectroscopy at 220 nm within the temperature range of 20–90°C using a heating rate of 40°C/h.
as §1, with “TbrAK in buffer E1 (20 mM Hepes, 150 mM NaCl, pH 7.0) was used at 0.5 mg/ml (final concentration 13 µM). All measurements were done in a 0.5 mm cell and contained 0.1 % DMSO” for “DMSO”

Series [3] has as its target T2, adenosine kinase of T. b. rhodesiense (TbrAK). Briefly: Radiometric assay for kinetic study of TbrAK.
The subject of the next series is T. b. rhodesiense. Set-up: method as in PMID 17949068. Particulars: in vitro, blood stage parasite; read-out: IC50 against blood stage T.b. rhodesiense; cited from earlier work.
The target in series [4] is T2, adenosine kinase of T. b. rhodesiense (TbrAK). Kind of series: HPLC activity assay for TbrAK. The class given is biochemical. Particulars: for activity at 50 µM: 37°C, ADP/ATP ratio, read-out: TbrAK activity in presence of compound (% of activity without compound); for concentration dependence of the activation effect: range 1–750 µM, up to solubility limit. The procedure: TbrAK catalyzes the ATP-dependent phosphorylation of the 5′-hydroxyl moiety of adenosine to form AMP and ADP. The activity assay was based on HPLC separation of substrate and products (adenosine, AMP, ADP, and ATP). The mobile phase consisted of 35 mM KH2PO4, 6 mM tetrabutylammonium hydrogensulfate, (pH 7.0, adjusted with KOH), 125 mM EDTA, and 1% (v/v) acetonitrile. The separation was performed isocratically at a flow-rate of 1.5 ml/min and monitored at 254 nm. The standard reaction in 75 µl total volume containing 0.5 mM ATP, 0.5 mM adenosine, 0.5 mM MgCl2, 1% DMSO in buffer E1 (20 mM Hepes, 150 mM NaCl, pH 7.0) was started with the addition of 2 µg TbrAK (final concentration 0.7 µM) and incubated at 37°C for 10 min while shaking vigorously (600 rpm). […] All reactions were stopped by adding 75 µl mobile phase. 50 µl of the sample volume were injected for analysis and the resulting ADP/ATP ratios were calculated and used as a measure of activity. For comparative reasons the activity recorded in absence of compound was set to 100%. The mean of three independent measurements are reported.

Series [5] in a line: Solubility limit in the assay mixture. The class given is physicochemical. Particulars: HPLC activity assay mixture (buffer E1 with 1% DMSO), 37 °C, pH 7, aqueous buffer, kinetic from dmso stock, read-out: solubility limiting concentration.
On the set-up of series [6]: method as in PMID 17949068. Particulars: cited from earlier work.
For series [7], the system named is bloodstream-form T. b. brucei TbAK RNAi cells. Kind of series: Drug sensitivity test (Alamar blue) on TbAK RNAi knock-down mutant. The series is classed as cell-based. The procedure: The construction of the T. b. brucei adenosine kinase gene knock-down mutant has been described recently. Expression of a stem-loop construct targeting TbAK was induced by addition of 10 µg/ml tetracycline to the medium. Down-regulation of TbAK expression was verified by Northern blotting. Parasites were cultivated and drug sensitivity was tested using the Alamar blue test. IC50 values were calculated by nonlinear fitting to the sigmoidal dose-response curve using Origin® software. The assays were performed in triplicates for at least four times.

Substrate in series [8]: Nc1ncnc2c1ncn2[C@@H]1O[C@H](CO)[C@@H](O)[C@H]1O
Kind of series: purified protein, by the assay type. Particulars: other: in absence of compound 1, 167 µM ATP; pH 7.0; 37.0 °C.

Where [9] appears, read: 50 µM compound, 0.7 µM TbrAK, 10 min.

T1 sequence (P22512 whole entry): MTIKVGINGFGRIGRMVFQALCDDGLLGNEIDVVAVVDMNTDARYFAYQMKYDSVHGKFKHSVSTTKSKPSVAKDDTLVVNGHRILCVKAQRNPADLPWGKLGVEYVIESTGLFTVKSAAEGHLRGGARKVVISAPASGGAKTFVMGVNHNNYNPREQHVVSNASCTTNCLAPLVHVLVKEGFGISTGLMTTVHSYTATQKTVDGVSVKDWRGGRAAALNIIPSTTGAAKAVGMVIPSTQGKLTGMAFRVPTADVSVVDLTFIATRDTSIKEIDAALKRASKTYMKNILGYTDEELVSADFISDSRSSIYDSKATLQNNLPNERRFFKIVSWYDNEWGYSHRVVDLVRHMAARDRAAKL

Turning to `O=CC(O)COP(=O)(O)O` (racemic) [DL-GAP, DL-glyceraldehyde-3-phosphate, reference compound], in [1] (substrate at 500 µM), the “Tm of TbrGAPDH” value stood at 50.0 ± 0.7 °C and the “∆Tm of TbrGAPDH” value is 2.4 °C.

Consider `Nc1ncnc2c1ncn2[C@@H]1O[C@H](COP(=O)(O)OP(=O)(O)OP(=O)(O)O)[C@@H](O)[C@H]1O` [ATP, reference compound], for which the “Tm of TbrAK” value in series [2] (substrate at 500 µM) is 42.8±0.1 °C. Besides, the “ΔTm of TbrAK” value in [2] (substrate at 500 µM, vs apo TbrAK) is −0.3 °C.

Turning to `NC(=O)c1ccc[n+]([C@@H]2O[C@H](COP(=O)([O-])OP(=O)(O)OC[C@H]3O[C@@H](n4cnc5c(N)ncnc54)[C@H](O)[C@@H]3O)[C@@H](O)[C@H]2O)c1` [NAD+, reference compound], in [1] (substrate at 500 µM), the “Tm of TbrGAPDH” value worked out at 55.6 ± 0.2 °C and the “∆Tm of TbrGAPDH” value turned out to be 8.0 °C.

With `Nc1ncnc2c1ncn2[C@@H]1O[C@H](CO)[C@@H](O)[C@H]1O` [adenosine], the ΔTm at 500 µM in [2] (read-out: ΔTm of TbrAK) stood at 7.6 °C. Moreover, the “Tm of TbrAK” value in series [2] (substrate at 500 µM) was found to be 50.7±0.2 °C. In [3], this molecule registered a Ki of 6.1 ± 1.4 µM.

For `Nc1ccc(Oc2ccc(-c3cc(N4CCOCC4)[nH]n3)cc2)cc1` [compound 2, 4-[4-(5-morpholine-4-yl-1H-pyrazol-3-yl)-phenoxy]phenylamine], the “Tm of TbrAK” value in [2] (compound at 50 µM) turned out to be 45.9±0.4 °C. For the same molecule, the ΔTm at 50 µM in series [2] (read-out: ΔTm of TbrAK) came out at 2.8 °C. Further, in the series with T. b. rhodesiense, the half-inhibitory concentration (IC50) is 17.7 µM. In series [4] (setting [9]), the activity at 50 µM amounted to 174 ± 5%. In addition, the fold induction at 50 µM in series [4] (10 min, pH 7, 50 µM compound, read-out: fold increase of TbrAK activity) worked out at 1.7. In addition, in series [4], the “concentration dependence of the activation effect” value (shortened to “concentration dependence”) was “concentration dependent”. Besides, the solubility in [5] was at most 50 µM. Also, the “Tm of TbrGAPDH” value in series [1] (compound at 50 µM) was 47.0 ± 0.4 °C.

Take `Nc1ccc(-n2nc(-c3ccc(Oc4ccccc4)cc3)cc2N2CCOCC2)cc1` [compound 3, 4-[5-morpholine-4-yl-3-(4-phenoxyphenyl)-pyrazol-1-yl]phenylamine]: in series [2] (compound at 50 µM), the “Tm of TbrAK” value was determined as 42.8±0.2 °C. Moreover, in [2] (read-out: ΔTm of TbrAK), the ΔTm at 50 µM is -0.3 °C. For the same molecule, in the series on T. b. rhodesiense, the IC50 is 10.3 µM. In addition, in series [4] (setting [9]), the activity at 50 µM was 110 ± 1%. Moreover, in [4], the “concentration dependence” value is reported as “did not activate TbrAK”. The “Tm of TbrGAPDH” value in series [1] (compound at 50 µM) was 45.5 ± 0.6 °C.

For `c1ccc(Oc2ccc(-c3cc(N4CCNCC4)[nH]n3)cc2)cc1` [compound 4], in series [2] (compound at 50 µM), the “Tm of TbrAK” value turned out to be 43.2±0.1 °C. In addition, the ΔTm at 50 µM in [2] (read-out: ΔTm of TbrAK) was found to be 0.1 °C. In the series on T. b. rhodesiense, the IC50 is 1.1 µM. The “cytotoxicity / general toxicity” value in [6] is given as “increased general toxicity”. Further, the activity at 50 µM in series [4] (setting [9]) is 109 ± 1%. The EC50 in series [4] (0.5 mM ATP, 0.5 mM adenosine, 0.7 µM TbrAK, read-out: EC50 of TbrAK activation (HPLC assay)) was over 750 µM. In [4] (HPLC assay), the “fold increase of EC50 relative to compound 1” value was “at least 20 fold”. Also, the “concentration dependence” value in [4] is on record as “concentration dependent”. In series [5], the solubility amounted to 750 µM (≈ 240 µg/mL). The “Tm of TbrGAPDH” value in series [1] (compound at 50 µM) was determined as 47.0 ± 0.1 °C.

`c1ccc(Oc2ccc(-c3cc[nH]n3)cc2)cc1` [compound 5, 3-(4-phenoxyphenyl)-1H-pyrazole]: in series [7], the “IC50 difference between induced and non-induced TbAK RNAi cells” value is on record as “did not exhibit any IC50 difference”. Moreover, the “Tm of TbrAK” value in [2] (compound at 50 µM) turned out to be 43.4±0.1 °C. Moreover, the ΔTm at 50 µM in series [2] (read-out: ΔTm of TbrAK) was 0.3 °C. Moreover, the IC50 in the series with T. b. rhodesiense was over 65 µM; in series [6] (read-out: general toxicity IC50) it was over 136 µM. The activity at 50 µM in series [4] (setting [9]) worked out at 102 ± 2%. Further, the “concentration dependence” value in [4] is given as “did not activate TbrAK”. Besides, the “Tm of TbrGAPDH” value in [1] (compound at 50 µM) amounted to 46.7 ± 0.2 °C.

B1: adenosine kinase of T. b. rhodesiense (TbrAK) (Trypanosoma brucei brucei TREU927) (protein)
chain: MSSAPLRVYVQCNPLLDVSAHVSDEFLVKYGLERGTAILLSERQKGIFDDIEKMPNVRYVPGGSGLNVARVAQWMQQAYKGKFVTYVGCIADDRYGKVLKEAAEHEGIVMAVEHTTKAGSGACAVCITGKERTLVADLGAANHLSSEHMRSPAVVRAMDESRIFYFSGFTLTVDVNHVLQACRKAREVDGLFMINLSAPFIMQFFSAQLGEVLPYTDIIVANRHEAKEFANMMKWDTDCVEEIARRAVSEVPYTGTKGRVVVFTRDIESTVLATKDGVETVPVPQLDQDKVIDMNGAGDAFMGGFLSAYAVGKDLRRCCETGHYTAQEVIQRDGCSFPEKPSFSP
Take B1: the Km in series [8] was determined as 0.99 ± 0.05 µM.
